Reference: ChEMBL document CHEMBL4610060, “Orally bioavailable amine-linked macrocyclic inhibitors of factor XIa” (Bioorg Med Chem Lett, 2020)

Key:
[1] = Permeability across apical to basolateral side in human Caco2 cells; format: ADME, cell-based; conditions: Caco-2, read-out: permeability
[2] = test system: Plasma; experiment: Anticoagulant activity in human plasma assessed as EC1.5 of activated partial thromboplastin time by coagulometric analysis; format: functional
[3] = target: Coagulation factor XI (Homo sapiens, UniProt P03951); experiment: Inhibition of recombinant human activated coagulation factor XI using pyro-Glu-Pro-Arg-pNA as substrate by spectrophotometry
[4] = Metabolic stability in human liver microsomes assessed as half life; format: ADME, Microsome
[5] = Permeability across basolateral to apical side in human Caco2 cells; format: ADME, cell-based; conditions: Caco-2, read-out: permeability
[6] = Clearance in Sprague-Dawley rat at 0.50 mg/kg, iv or 1.0 mg/kg, po measured upto 24 hrs by LC-MS/MS analysis; format: ADME, organism-based; conditions: in vivo, 0.5 mg/kg
[7] = Half life in Sprague-Dawley rat at 0.50 mg/kg, iv or 1.0 mg/kg, po measured upto 24 hrs by LC-MS/MS analysis; format: ADME, organism-based; conditions: in vivo
[8] = Volume of distribution at steady state in Sprague-Dawley rat at 0.50 mg/kg, iv or 1.0 mg/kg, po measured upto 24 hrs by LC-MS/MS analysis; format: ADME, organism-based; conditions: in vivo, 0.5 mg/kg, read-out: Vdss
[9] = Oral bioavailability in Sprague-Dawley rat at 1.0 mg/kg measured upto 24 hrs by LC-MS/MS analysis; format: ADME, organism-based; conditions: in vivo
[10] = AUC in Sprague-Dawley rat at 1.0 mg/kg, po measured upto 24 hrs by LC-MS/MS analysis; format: ADME, organism-based; design: dose 1 mg/kg, time < 24 hr, route oral; conditions: in vivo
[11] = Protein binding in rat assessed as unbound fraction; format: ADME
[12] = Metabolic stability in rat liver microsomes assessed as half life; format: ADME, Microsome
[13] = Clearance in Sprague-Dawley rat at 0.49 mg/kg, iv or 0.98 mg/kg, po measured upto 24 hrs by LC-MS/MS analysis; format: ADME, organism-based; conditions: in vivo
[14] = Half life in Sprague-Dawley rat at 0.49 mg/kg, iv or 0.98 mg/kg, po measured upto 24 hrs by LC-MS/MS analysis; format: ADME, organism-based; conditions: in vivo
[15] = Volume of distribution at steady state in Sprague-Dawley rat at 0.49 mg/kg, iv or 0.98 mg/kg, po measured upto 24 hrs by LC-MS/MS analysis; format: ADME, organism-based; conditions: in vivo, read-out: Vdss
[16] = Oral bioavailability in Sprague-Dawley rat at 0.98 mg/kg measured upto 24 hrs by LC-MS/MS analysis; format: ADME, organism-based; conditions: in vivo
[17] = AUC in Sprague-Dawley rat at 0.98 mg/kg, po measured upto 24 hrs by LC-MS/MS analysis; format: ADME, organism-based; design: time < 24 hr, dose 0.98 mg/kg, route oral; conditions: in vivo

Sequence of Coagulation factor XI (P03951 19-387 limits assumed): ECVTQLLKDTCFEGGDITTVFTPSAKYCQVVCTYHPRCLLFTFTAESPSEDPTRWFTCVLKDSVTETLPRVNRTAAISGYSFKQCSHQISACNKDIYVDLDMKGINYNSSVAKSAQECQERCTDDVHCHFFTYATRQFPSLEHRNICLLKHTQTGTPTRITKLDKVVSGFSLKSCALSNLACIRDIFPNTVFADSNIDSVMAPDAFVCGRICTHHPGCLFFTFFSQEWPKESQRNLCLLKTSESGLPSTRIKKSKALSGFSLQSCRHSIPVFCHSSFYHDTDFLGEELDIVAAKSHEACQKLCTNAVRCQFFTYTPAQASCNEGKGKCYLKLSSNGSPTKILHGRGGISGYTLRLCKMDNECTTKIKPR
Sequence of Coagulation factor XI (P03951 388-625 limits assumed): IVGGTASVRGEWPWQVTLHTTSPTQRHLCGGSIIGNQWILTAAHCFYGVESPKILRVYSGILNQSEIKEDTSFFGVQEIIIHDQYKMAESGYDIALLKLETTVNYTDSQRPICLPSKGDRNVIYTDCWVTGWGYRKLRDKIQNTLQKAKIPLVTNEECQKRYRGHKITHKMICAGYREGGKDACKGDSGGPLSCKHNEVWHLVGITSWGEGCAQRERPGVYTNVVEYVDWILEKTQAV

Ki [3]	half-life [4]	SMILES	EC1.5 [2]	also measured
–	–	COC(=O)Nc1ccc2c(c1)NC(=O)CC/C=C/C[C@H](NC(=O)/C=C/c1cc(Cl)ccc1-n1cnnn1)c1nc-2c[nH]1	0.27 µM	Papp A→B [1]: < 1.5 ×10⁻⁶ cm/s
16 nM	6 min	COC(=O)Nc1ccc2c(c1)NCCCCC[C@H](NC(=O)/C=C/c1cc(Cl)ccc1-n1cnnn1)c1nc-2c[nH]1	6.2 µM	–
53 nM	29 min	COC(=O)Nc1ccc2c(c1)N[C@@H](C(F)(F)F)CC/C=C/C[C@H](NC(=O)/C=C/c1cc(Cl)ccc1-n1cnnn1)c1nc-2c[nH]1	>40 µM	–
2.6 nM	99 min	COC(=O)Nc1ccc2c(c1)N[C@@H](C(=O)O)CCCC[C@H](NC(=O)/C=C/c1cc(Cl)ccc1-n1cnnn1)c1cc-2ccn1	7.1 µM	–
2 nM	4 min	COC(=O)C[C@H]1CCCC[C@H](NC(=O)/C=C/c2cc(Cl)ccc2-n2cnnn2)c2nc(c[nH]2)-c2ccc(NC(=O)OC)cc2N1	1.1 µM	–
24 nM	8 min	COC(=O)Nc1ccc2c(c1)C[C@@H](C(=O)OC)CCCC[C@H](NC(=O)/C=C/c1cc(Cl)ccc1-n1cnnn1)c1nc-2c[nH]1	25 µM	–
0.61 nM	10 min	COC(=O)Nc1ccc2c(c1)N[C@@H](CO)CCCC[C@H](NC(=O)/C=C/c1cc(Cl)ccc1-n1cnnn1)c1nc-2c[nH]1	0.54 µM	–
6 nM	2 min	O=C(/C=C/c1cc(Cl)ccc1-n1cnnn1)N[C@H]1C/C=C/CCC(=O)Nc2ccc(F)cc2-c2c[nH]c1n2	2.5 µM	–
2.5 nM	30 min	CCOC(=O)[C@H]1CCCC[C@H](NC(=O)/C=C/c2cc(Cl)ccc2-n2cnnn2)c2cc(ccn2)-c2ccc(NC(=O)OC)cc2N1	6.1 µM	Papp B→A [5]: 10.1 ×10⁻⁶ cm/s; Papp A→B [1]: < 1.5 ×10⁻⁶ cm/s; clearance [6]: 4.9 mL/min/kg; half-life [7]: 216 min; Vd [8]: 1.3 L/kg; bioavailability [9]: 41%; AUC at 24 h [10]: 1.29 µM·h; fraction unbound [11]: 0.008; half-life [12]: 59 min
245 nM	6 min	COC(=O)c1ccc2c(c1)-c1c[nH]c(n1)[C@@H](NC(=O)/C=C/c1cc(Cl)ccc1-n1cnnn1)C/C=C/CCC(=O)N2	–	–
16 nM	95 min	COC(=O)Nc1ccc2c(c1)N[C@@H](C(F)(F)F)CCCC[C@H](NC(=O)/C=C/c1cc(Cl)ccc1-n1cnnn1)c1cc-2ccn1	13 µM	–
0.67 nM	70 min	COC(=O)Nc1ccc2c(c1)N[C@@H](C(=O)O)CCCC[C@H](NC(=O)/C=C/c1cc(Cl)ccc1-n1cnnn1)c1nc-2c[nH]1	0.87 µM	Papp B→A [5]: < 1.5 ×10⁻⁶ cm/s; Papp A→B [1]: < 1.5 ×10⁻⁶ cm/s; clearance [13]: 7.7 mL/min/kg; half-life [14]: 60 min; Vd [15]: 0.33 L/kg; bioavailability [16]: 1%; AUC at 24 h [17]: 0.014 µM·h; fraction unbound [11]: 0.014; half-life [12]: 75 min
